Measurements published in ChEMBL document CHEMBL3885861, “Open TG-GATES”.

Species: Rattus norvegicus
Test: Open TG-GATES - Regimen: Daily Repeat
Format: toxicity, organism-based, Sprague-Dawley
Set-up: regimen Daily Repeat, gender Male, age 6 weeks
Settings: in vivo, po, 50 mg/kg, route gavage, dose level Low; for APTT / Bas / Eos / Fbg / Hb / Ht / Lym / MCH / MCHC / MCV / Mono / Neu / PT / Plat / RBC / Ret / WBC: tissue Blood; for KIDNEY_L / KIDNEY_R / KIDNEY_TOTAL: tissue Kidney; for LIVER: tissue Liver; for A/G / ALP / ALT / AST / BUN / CRE / Ca / Cl / DBIL / GLC / IP / K / LDH / Na / PL / RALB / TBIL / TC / TG / TP / gamma-GTP: tissue Plasma

NNC(=O)c1ccncc1 [ISONIAZID]
TERMINAL_BW (72 h, time 3 day): 220.3 g | APTT (72 h, time 3 day): 14.6 s | Bas (72 h, time 3 day): 0% | Eos (72 h, time 3 day): 1.2% | Fbg (72 h, time 3 day): 242.2 mg/dL | Hb (72 h, time 3 day): 13.6 g/dL | Ht (72 h, time 3 day): 40.6% | Lym (72 h, time 3 day): 73.4% | MCH (72 h, time 3 day): 21.8 pg | MCHC (72 h, time 3 day): 33.4% | MCV (72 h, time 3 day): 65.3 fL | Mono (72 h, time 3 day): 11.8% | Neu (72 h, time 3 day): 13.8% | PT (72 h, time 3 day): 12 s | Plat (72 h, time 3 day): 113 x10_4/uL | RBC (72 h, time 3 day): 622.8 x10_4/ul | Ret (72 h, time 3 day): 7.5% | WBC (72 h, time 3 day): 85.3 x10_2/uL | KIDNEY_L (72 h, time 3 day): 1 g | KIDNEY_R (72 h, time 3 day): 1 g | KIDNEY_TOTAL (72 h, time 3 day): 2 g | LIVER (72 h, time 3 day): 11.3 g | A/G (72 h, time 3 day): 1.8 | ALP (72 h, time 3 day): 862.8 IU/L | ALT (72 h, time 3 day): 23.2 IU/L | AST (72 h, time 3 day): 57 IU/L | BUN (72 h, time 3 day): 16.6 mg/dL | CRE (72 h, time 3 day): 0.5 mg/dL | Ca (72 h, time 3 day): 10.7 mg/dL | Cl (72 h, time 3 day): 104.6 meq/L | DBIL (72 h, time 3 day): 0.008 mg/dL | GLC (72 h, time 3 day): 225.2 mg/dL | IP (72 h, time 3 day): 8.3 mg/dL | K (72 h, time 3 day): 4.8 meq/L | LDH (72 h, time 3 day): 108.6 IU/L | Na (72 h, time 3 day): 140.2 meq/L | PL (72 h, time 3 day): 145.4 mg/dL | RALB (72 h, time 3 day): 3.8 g/dL | TBIL (72 h, time 3 day): 0.3 mg/dL | TC (72 h, time 3 day): 79.2 mg/dL | TG (72 h, time 3 day): 98 mg/dL | TP (72 h, time 3 day): 5.9 g/dL | gamma-GTP (72 h, time 3 day): 1 IU/L | TERMINAL_BW ([…], time 7 day): 247.3 g | TERMINAL_BW ([…], time 14 day): 307.2 g | TERMINAL_BW ([…], time 28 day): 372.9 g | APTT ([…], time 7 day): 15.7 s | Bas ([…], time 7 day): 0% | Eos ([…], time 7 day): 1% | Fbg ([…], time 7 day): 230.4 mg/dL | Hb ([…], time 7 day): 13.8 g/dL | Ht ([…], time 7 day): 41.1% | Lym ([…], time 7 day): 80.8% | MCH ([…], time 7 day): 20.9 pg | MCHC ([…], time 7 day): 33.5% | MCV ([…], time 7 day): 62.3 fL | Mono ([…], time 7 day): 6.8% | Neu ([…], time 7 day): 11.2% | PT ([…], time 7 day): 12.1 s | Plat ([…], time 7 day): 125.4 x10_4/uL | RBC ([…], time 7 day): 661.6 x10_4/ul | Ret ([…], time 7 day): 6.1% | WBC ([…], time 7 day): 118.4 x10_2/uL | APTT ([…], time 14 day): 15.7 s | Bas ([…], time 14 day): 0% | Eos ([…], time 14 day): 1% | Fbg ([…], time 14 day): 227.8 mg/dL | Hb ([…], time 14 day): 14 g/dL | Ht ([…], time 14 day): 41.8% | Lym ([…], time 14 day): 79% | MCH ([…], time 14 day): 20.1 pg | MCHC ([…], time 14 day): 33.5% | MCV ([…], time 14 day): 60.1 fL | Mono ([…], time 14 day): 7.4% | Neu ([…], time 14 day): 12.8% | PT ([…], time 14 day): 12 s | Plat ([…], time 14 day): 118.6 x10_4/uL | RBC ([…], time 14 day): 697.4 x10_4/ul | Ret ([…], time 14 day): 5.1% | WBC ([…], time 14 day): 137 x10_2/uL | APTT ([…], time 28 day): 15.6 s | Bas ([…], time 28 day): 0% | Eos ([…], time 28 day): 1% | Fbg ([…], time 28 day): 227.4 mg/dL | Hb ([…], time 28 day): 14.7 g/dL | Ht ([…], time 28 day): 44.2% | Lym ([…], time 28 day): 86.2% | MCH ([…], time 28 day): 19.1 pg | MCHC ([…], time 28 day): 33.4% | MCV ([…], time 28 day): 57.3 fL | Mono ([…], time 28 day): 2.8% | Neu ([…], time 28 day): 10% | PT ([…], time 28 day): 12 s | Plat ([…], time 28 day): 102.2 x10_4/uL | RBC ([…], time 28 day): 771.2 x10_4/ul | Ret ([…], time 28 day): 3% | WBC ([…], time 28 day): 149.4 x10_2/uL | KIDNEY_L ([…], time 7 day): 1.1 g | KIDNEY_R ([…], time 7 day): 1.1 g | KIDNEY_TOTAL ([…], time 7 day): 2.2 g | KIDNEY_L ([…], time 14 day): 1.2 g | KIDNEY_R ([…], time 14 day): 1.3 g | KIDNEY_TOTAL ([…], time 14 day): 2.5 g | KIDNEY_L ([…], time 28 day): 1.4 g | KIDNEY_R ([…], time 28 day): 1.3 g | KIDNEY_TOTAL ([…], time 28 day): 2.7 g | LIVER ([…], time 7 day): 12 g | LIVER ([…], time 14 day): 14.1 g | LIVER ([…], time 28 day): 15.1 g | A/G ([…], time 7 day): 1.5 | ALP ([…], time 7 day): 797.6 IU/L | ALT ([…], time 7 day): 20.6 IU/L | AST ([…], time 7 day): 60.6 IU/L | BUN ([…], time 7 day): 18.4 mg/dL | CRE ([…], time 7 day): 0.5 mg/dL | Ca ([…], time 7 day): 10.5 mg/dL | Cl ([…], time 7 day): 105.6 meq/L | DBIL ([…], time 7 day): 0.08 mg/dL | GLC ([…], time 7 day): 227.2 mg/dL | IP ([…], time 7 day): 8.2 mg/dL | K ([…], time 7 day): 5 meq/L | LDH ([…], time 7 day): 113 IU/L | Na ([…], time 7 day): 139 meq/L | PL ([…], time 7 day): 147 mg/dL | RALB ([…], time 7 day): 3.6 g/dL | TBIL ([…], time 7 day): 0.3 mg/dL | TC ([…], time 7 day): 73.2 mg/dL | TG ([…], time 7 day): 100.4 mg/dL | TP ([…], time 7 day): 6.1 g/dL | gamma-GTP ([…], time 7 day): 1 IU/L | A/G ([…], time 14 day): 1.6 | ALP ([…], time 14 day): 683 IU/L | ALT ([…], time 14 day): 19 IU/L | AST ([…], time 14 day): 58.2 IU/L | BUN ([…], time 14 day): 16 mg/dL | CRE ([…], time 14 day): 0.6 mg/dL | Ca ([…], time 14 day): 10.5 mg/dL | Cl ([…], time 14 day): 105.8 meq/L | DBIL ([…], time 14 day): 0 mg/dL | GLC ([…], time 14 day): 203 mg/dL | IP ([…], time 14 day): 8.1 mg/dL | K ([…], time 14 day): 5.1 meq/L | LDH ([…], time 14 day): 101.6 IU/L | Na ([…], time 14 day): 138.2 meq/L | PL ([…], time 14 day): 138.6 mg/dL | RALB ([…], time 14 day): 3.7 g/dL | TBIL ([…], time 14 day): 0.3 mg/dL | TC ([…], time 14 day): 68.8 mg/dL | TG ([…], time 14 day): 119.2 mg/dL | TP ([…], time 14 day): 6 g/dL | gamma-GTP ([…], time 14 day): 0.4 IU/L | A/G ([…], time 28 day): 1.4 | ALP ([…], time 28 day): 560.2 IU/L | ALT ([…], time 28 day): 14.2 IU/L | AST ([…], time 28 day): 55.2 IU/L | BUN ([…], time 28 day): 20.4 mg/dL | CRE ([…], time 28 day): 0.6 mg/dL | Ca ([…], time 28 day): 10.1 mg/dL | Cl ([…], time 28 day): 104.8 meq/L | DBIL ([…], time 28 day): 0.042 mg/dL | GLC ([…], time 28 day): 208.6 mg/dL | IP ([…], time 28 day): 7.3 mg/dL | K ([…], time 28 day): 4.5 meq/L | LDH ([…], time 28 day): 87.4 IU/L | Na ([…], time 28 day): 141.4 meq/L | PL ([…], time 28 day): 138.6 mg/dL | RALB ([…], time 28 day): 3.6 g/dL | TBIL ([…], time 28 day): 0.2 mg/dL | TC ([…], time 28 day): 66.4 mg/dL | TG ([…], time 28 day): 131.2 mg/dL | TP ([…], time 28 day): 6.1 g/dL | gamma-GTP ([…], time 28 day): 1.4 IU/L
